Experimental findings from PubChem BioAssay AID2305 (GlaxoSmithKline (GSK), 2010) are described below.

In the assay the test system is P. falciparum 3D7 growth, pLDH absorbance. Briefly: P. falciparum 3D7 growth inhibition, dose response, strain 3D7 (AID 2305).

SMILES strings stand for the structures. “And” between values parts separate entries of the source, which are not always exact repeats. Equal entries are not always repeated.

`COc1ccc(C(=O)Nc2cc(Cl)c3c(c2)C2CCCN2CC3)cc1C(F)(F)F` (stereo not drawn): the IC50 (commonly the concentration that inhibits the measured activity by half) is 750 nM.
Next, `CN1CCN(c2ccnc3ccc(NC(=O)Nc4ccccc4Br)cc23)CC1`: 370 nM; `CC(=O)N[C@H](C(=O)Nc1cccc(-c2ccc(-c3nc4c(C)cccc4[nH]3)s2)c1)C(C)C`: 760 nM.
Next, `O=c1cc(NCCCCNCc2cccc(C(F)(F)F)c2)[nH]c2ccccc12`: 790 nM; `Cc1cnc(NCCc2ccc(F)cc2)nc1NCCC(=O)Nc1ccccc1`: 950 nM.
`Cn1c(Nc2cc(C(C)(C)C)on2)nc2cc(Nc3ccnc(Nc4ccc(CS(C)(=O)=O)cc4)n3)ccc21` had an IC50 of 980 nM.
Next, `CCCCc1cc(NCc2ccncc2)nc(Nc2ccc(OC)cc2)n1`: 1060 nM; `Cc1ccc(C(NC(=O)C2CCCCC2)c2ccc3cccnc3c2O)cc1` (stereo not drawn): 950 nM.
Next, `CO/C(=C\C=C\c1cc2cc(Cl)c(Cl)cc2[nH]1)C(=O)NC1CCN(CCOc2ccccc2)CC1`: 610 nM; `CCOc1ccc2nc(C)cc(NN=Cc3ccccc3Cl)c2c1`: 190 nM; `O=C(/C=C/c1ccc(Cl)c(Cl)c1)N1CCN(C(=O)Nc2cccc(C(F)(F)F)c2)CC1`: 700 nM.
On to `O=C(/C=C/c1cccc(F)c1)NC1CCC(CN2CCC(c3c[nH]c4ccccc34)CC2)CC1` (stereo not drawn), for which the IC50 is 870 nM and 710 nM.
Next, `COc1cccc(CNC[C@@H](O)[C@H](Cc2ccccc2)NC(=O)c2cc3c4c(c2)c(C(C)C)cn4CCS(=O)(=O)N3C)c1`: 150 nM; `Cc1ccc(-c2ccn(Cc3cccc(OCc4ccccc4)c3)n2)cn1` (tested in a mixture with another compound): 1180 nM.
Next, `CC(C)Nc1nc(NCCc2cnc[nH]2)nc(NCc2ccc(Cl)c(Cl)c2)n1`: 960 nM; `CC(C)Cn1cc2c(ccc3nc(N)nc(N)c32)n1`: 300 nM.
Next, `COc1cc2nc(NCCc3ccccc3)nc(NCCCc3ccccc3)c2cc1OC`: 160 nM.
`CN(Cc1cnc2nc(N)nc(N)c2n1)c1ccc(C(=O)N[C@H](CCC(=O)O)C(=O)O)cc1` gave an IC50 of 100 nM.
Next, `O=C(NC1CCCCC1)C1CCCN(C(=O)c2ccc(O)c(-c3ccc(Cl)c(Cl)c3)c2)C1` (stereo not drawn): 900 nM; `CC(CNC(=O)c1cc2c(Cl)cc(Cl)cc2[nH]1)CNc1cc(=O)c2ccccc2[nH]1` (stereo not drawn): 720 nM; `Cc1cc(NC(=O)c2cccs2)ccc1OC1CCN(Cc2ccc(F)cc2)CC1`: 480 nM.
Next, `Cc1cccc2[nH]c(-c3ccc(-c4cccc(CN5CCC(CO)CC5)c4)s3)nc12`: 940 nM; `CC(NC(=O)c1ccc(O)c(-c2ccc(Cl)c(Cl)c2)c1)C(=O)NCCN1CCOCC1` (stereo not drawn): 960 nM.
In the case of `CCCCCCCc1c(C)[nH]c2c(OC)cccc2c1=O`, the IC50 came out at 920 nM.
Regarding `COc1ccc(CC(C)NCC(O)c2cccc(Cl)c2)cc1C` (stereo not drawn), the IC50 is 900 nM.
Next, `CC(Oc1c(C2CCN(CCCCNC(=O)c3ccc(-c4ccc(Cl)cc4)cc3)CC2)ccc2c1CCCC2)C(N)=O` (stereo not drawn): 950 nM; `CCc1cccc(OCC2CCCN(c3ccc(C(=O)NC4CC4)cn3)C2)c1` (stereo not drawn): 1440 nM.
Next, `CC(C)(C)OC(=O)C1CCCN(Cc2ccc(-c3cccc(-c4nc5ccccc5[nH]4)c3)cc2)C1` (stereo not drawn): 360 nM; `O=C(Nc1cc(C(F)(F)F)cc(C(F)(F)F)c1)N1CCC(CN2CCC(c3c[nH]c4ccccc34)CC2)CC1`: 190 nM.
Next, `Fc1cccc(Nc2nc(NCc3ccc(Cl)c(Cl)c3)nc(Nc3cccc(F)c3)n2)c1`: 750 nM; `CC(C)(C)C(=O)Nc1ccc(C(=O)Nc2cccc(-c3nc4ccccc4[nH]3)c2)cc1`: 280 nM; `O=C(C=Cc1ccc(Cl)c(Cl)c1)NCCCCCN1CCC(CCNC(=O)c2cccc3ccccc23)CC1`: 1590 nM.
Consider `COc1ccc2c(NN=C(C)c3ccccn3)cc(C)nc2c1`, for which the IC50 came to 720 nM.
In turn, `CC(C)COc1ccc(C(O)C(CN2CCCCC2)c2ccccc2)cc1` (stereo not drawn) displayed an IC50 of 920 nM.
Next, `CCN(CC)CCCC(C)Nc1ccnc2cc(C#N)ccc12` (stereo not drawn): 140 nM.
Next, `Cc1cccc2[nH]c(-c3ccc(-c4ccc(NC(=O)N[C@@H]5C[C@H]5c5ccccc5)cc4)cc3)nc12`: 880 nM; `COc1cc(F)c2ncc(Cl)c(CCN3CCC(NCc4ccc5c(n4)NC(=O)CO5)CC3)c2c1`: 500 nM; `CN(C)CCCN1C(=O)c2[nH]nc(-c3ccc(Cl)cc3O)c2C1c1ccc(Cl)cc1` (stereo not drawn): 760 nM.
The compound `Cc1cc(N[C@@H](Cc2ccccc2)C(=O)NCc2cccc(F)c2)nc(NCCc2ccccc2)n1` showed an IC50 of 1020 nM.
Next, `O=C(Nc1ccc(OC2CCN(Cc3ccccc3)C2)c(Cl)c1)c1ccsc1` (stereo not drawn): 730 nM.
For the compound `CC(C)(C)c1ccc(CN2CCCCC(NC(=O)c3cc(-c4cccc(Cl)c4)cs3)C2)cc1` (stereo not drawn), the half-inhibitory concentration (IC50) stood at 1000 nM.
Take `O=C(NC1CCCc2ccccc21)[C@@H]1CCCN1C(=O)c1ccc(O)c(-c2cccc([N+](=O)[O-])c2)c1` (stereo partly drawn): the IC50 came to 680 nM.
As for `O=C(NC(=O)c1ccccc1O)c1ccccc1O`, the IC50 was 700 nM.
Next, `CCCn1c(Sc2ccc(C#N)c([N+](=O)[O-])c2)nnc1-c1cc(OC)cc(OC)c1`: 720 nM; `Cc1ccc(Nc2nc(NN=Cc3ccc(-c4ccc([N+](=O)[O-])cc4)o3)nc(N3CCOCC3)n2)cc1Cl`: 650 nM.
Next, `COc1ccc(CN2CCC2=O)c(OC)c1`: 120 nM; `c1ccc(C2CCC(N3CCC(N4CCN(c5ccccc5)CC4)CC3)CC2)cc1` (stereo not drawn): 760 nM; `COc1cccc(CNC[C@@H](O)[C@H](Cc2ccccc2)NC(=O)c2cc(NC(C)C)cc(N3CCCCS3(=O)=O)c2)c1`: 780 nM.
Next, `COc1ccccc1C(C)NCC(=O)Nc1ccccc1Sc1ccccc1` (stereo not drawn): 1100 nM; `Nc1cc(C(F)(F)F)ccc1Cl`: 740 nM.
As to `CC(=O)Nc1ccc(NC(=O)c2cc(-c3cc(Cl)ccc3O)n[nH]2)cc1`, the IC50 came out at 180 nM.
Next, `Fc1ccccc1CNc1ncc(-c2ccsc2)c(-c2nccs2)n1`: 50 nM; `CC(C)CC(=O)NC1CCN(Cc2c(-c3cccs3)nc3ccccc3c2C(=O)N[C@@H](C)C2CCCCC2)CC1`: 820 nM.
Next, `CCCC(=O)Nc1ccc(Cl)c(NC(=O)COc2cc(C)ccc2C(C)C)c1`: 930 nM; `Cc1cccc(Cn2c(Cc3ccccc3)nnc2Sc2ccc([N+](=O)[O-])c(C#N)c2)c1`: 1140 nM; `O=C1COC(c2ccccc2)(c2ccccc2)CN1CC1CCN(Cc2ccc(O)cc2Cl)C1` (stereo not drawn): 1000 nM.
Next, `c1cc(CN2CCCCC2)cc(-c2ccc(-c3nc4ccccc4[nH]3)s2)c1`: 870 nM; `COc1cc2c(c(Cl)c1OC)CCN(Cc1ccccc1)CC2c1ccc(C(N)=O)cc1` (stereo not drawn): 850 nM; `O=C(Nc1ccc(Cl)c(Cl)c1)N(Cc1ccccc1Br)C1CCNCC1`: 1030 nM.
With `CCc1ccc(C2=Nn3c(nnc3-c3cccs3)SC2)cc1`, the IC50 was found to be 1290 nM.
Next, `CN(C)C(=O)c1ccc(CN(Cc2cccc(OC(C)(C)C)c2)Cc2ccc3c(c2)OCCO3)cc1`: 570 nM; `CCN(CC)CCCNc1ncc2c(-c3ccc(NC(=O)Nc4cc(C(F)(F)F)ccc4F)c(F)c3)nn(C)c2n1`: 270 nM.
Next, `c1ccc(CN2CCC(Nc3ccc(-c4cn[nH]c4-c4ccccn4)nc3)CC2)cc1`: 800 nM; `O=C(Nc1cccc(CN2CCN(C(=O)c3cccc(Cl)c3)CC2)c1)c1cccs1`: 180 nM; `CCOC(=O)c1ccc(Nc2cc(Nc3ccc(C(=O)OCC)cc3)nc(C)n2)cc1`: 910 nM.
Next, `Cc1cnc(CS(=O)c2nc3ccc(C(F)(F)F)cc3[nH]2)cc1OCc1ccccc1` (stereo not drawn): 740 nM; `O=c1ccccn1CCCC1CCCCN1` (stereo not drawn): 810 nM; `NCCCN(Cc1ccc(Cl)c(Cl)c1)C(=O)Nc1ccc(Cl)c(Cl)c1`: 900 nM.
On to `O=C(/C=C/c1ccc(Cl)c(Cl)c1)Nc1cccc(CN2CCC(c3c[nH]c4ccc(O)cc34)CC2)c1`, for which the IC50 was 940 nM.
In the case of `CC1(C)N=C(N)N=C(N)N1OCCCCON1C(N)=NC(N)=NC1(C)C`, the IC50 was 70 nM.
Next, `O=C(/C=C/c1ccc(Cl)c(Cl)c1)N1CCC(CCN2CCC(c3c[nH]c4cnccc34)CC2)CC1`: 120 nM; `COc1ccc(C2CC(=O)C3=C(C2)NC(C)=C(C(=O)OC2CCCC2)C3c2cccc(O)c2)cc1` (stereo not drawn): 1010 nM.
Next, `COc1cccc(Nc2nc(NCCO)c3ccccc3n2)c1`: 150 nM; `CCNc1cc(C(=O)N[C@@H](Cc2ccccc2)[C@H](O)CNC(C)(C)CCCC(C)C)cc(N2CCCC2=O)c1`: 830 nM.
Next, `CCc1c(CCNCCCCCCNCCc2ccc([N+](=O)[O-])cc2)ccc(OC)c1OC`: 730 nM; `c1ccc(CNCc2ccc(-c3cccc(-c4nc5ccccc5[nH]4)c3)cc2)cc1`: 420 nM; `O=C(NCC1CCN(CC2CCCCC2)C1)c1cc(-c2cccc(C(F)(F)F)c2)cs1` (stereo not drawn): 740 nM.
As for `Cc1cc(C)c(NC(=O)NC2CCN(CCCCCNC(=O)/C=C/c3ccc(Cl)c(Cl)c3)CC2)c(C)c1`, the IC50 worked out at 800 nM.
Next, `COc1cc(C)nc2ccc(NC(=O)c3cc(C(F)(F)F)cc(C(F)(F)F)c3)cc12`: 910 nM; `N=c1n(Cc2ccccc2)c2ccccc2n1CC(O)c1ccc(Cl)cc1` (stereo not drawn): 880 nM.
Turning to `CCNc1cc(C(=O)N[C@@H](Cc2ccccc2)[C@H](O)CNC2(C(C)C)CCC2)cc(N2CCCCS2(=O)=O)c1`, the half-maximal inhibitory concentration (IC50) stood at 680 nM.
Next, `CN(CCN1CCC(c2c[nH]c3ccccc23)CC1)C(=O)OCCCCCNC(=O)/C=C/c1ccc(Cl)c(Cl)c1`: 680 nM; `CN1CC=C(c2c[nH]c3ccc(Sc4ccccc4)cc23)CC1`: 360 nM; `O=C(N[C@@H](Cc1ccccc1)C(=O)NCCN1CCCCC1)c1ccc(O)c(-c2ccc(Cl)c(Cl)c2)c1`: 1520 nM.
Next, `CN1CCC[C@H]1COc1ccc(CN2CC[C@H](NC(=O)c3ccc(Cl)c(Cl)c3)C2)cc1Cl`: 1150 nM; `CN(c1ccccc1C(=O)Nc1ccccc1Oc1ccccc1)S(=O)(=O)c1ccccc1`: 1150 nM; `Cc1cccc(OCC2CCN(c3ncc(C(=O)NC4CC4)cc3Cl)CC2)c1`: 1330 nM.
`CC=CC1CCNC(C(O)c2ccnc3ccc(OC)cc23)C1` (stereo not drawn) had an IC50 of 1090 nM.
